The text below walks through data of publication PMC6792352, “Limited Chemical Structural Diversity Found to Modulate Thyroid Hormone Receptor in the Tox21 Chemical Library” (Environmental Health Perspectives, 2019).

Structures can show the parent of a compound that is named as a salt.

One data set in a line: in vitro. To be noted: rat, gh3-tre-luc cells, AC50 (uM) modified / 1000.
`CC(C)(Cl)Cl` [2,2-Dichloropropane]: the 50% cytotoxic concentration (CC50) at 24 h was > 90 µM.

Consider `COC(OC)(C(=O)c1ccccc1)c1ccccc1` [2,2-Dimethoxy-1,2-diphenylethanone], for which the cytotoxic concentration (CC50) at 24 h was > 90 µM.

As for `COC(C)(C)OC` [2,2-Dimethoxypropane], the CC50 at 24 h was > 90 µM.

`CC1(C)Cc2cccc(N)c2O1` [2,2-Dimethyl-2,3-dihydro-1-benzofuran-7-amine]: the half-maximal cytotoxic concentration (CC50) at 24 h is > 90 µM.

Turning to `CCC(O)C(C)(C)C` (stereo not drawn) [2,2-Dimethyl-3-pentanol], the CC50 at 24 h is > 90 µM.

Consider `CCC(C)(C)C` [2,2-Dimethylbutane], for which the cytotoxic concentration (CC50) at 24 h is > 100 µM.

Turning to `CC(C)(CC(=O)O)C(=O)O` [2,2-Dimethylbutanedioic acid], the CC50 at 24 h was > 90 µM.

In the case of `CCC(C)(C)C(=O)O` [2,2-Dimethylbutanoic acid], the CC50 at 24 h was > 90 µM.

With `CC(C)(CCC(=O)O)C(=O)O` [2,2-Dimethylpentanedioic acid], the cytotoxic concentration (CC50) at 24 h was > 90 µM.

For the compound `CC(C)(CO)CO` [2,2-Dimethylpropane-1,3-diol], the CC50 at 24 h was > 90 µM.

As to `C=C(C)C(=O)OCC(C)(C)COC(=O)C(=C)C` [2,2-Dimethylpropane-1,3-diyl bis(2-methylprop-2-enoate)], the CC50 at 24 h is > 90 µM.

Turning to `CC(C)(C)C(=O)O` [2,2-Dimethylpropanoic acid], the CC50 at 24 h was > 90 µM.

For `CC(C)(C)C(=O)Cl` [2,2-Dimethylpropanoyl chloride], the CC50 at 24 h was > 90 µM.

Take `CC(C)=CCl` [2,2-Dimethylvinyl chloride]: the CC50 at 24 h is > 90 µM.

As to `CC(C)(c1ccccc1)c1ccccc1` [2,2-Diphenylpropane], the CC50 at 24 h is > 90 µM.

With `O=C(c1ccc(O)c(O)c1)c1ccc(O)cc1O` [2,3',4,4'-Tetrahydroxybenzophenone], the CC50 at 24 h turned out to be 49.5 µM.

In the case of `CC1=Nc2ccccc2C1(C)C` [2,3,3-Trimethylindolenine], the CC50 at 24 h is > 90 µM.

Consider `O=C(c1ccc(O)cc1)c1ccc(O)c(O)c1O` [2,3,4,4'-Tetrahydroxybenzophenone], for which the CC50 at 24 h was > 90 µM.

`Clc1nc(C(Cl)(Cl)Cl)c(Cl)c(Cl)c1Cl` [2,3,4,5-Tetrachloro-6-(trichloromethyl)pyridine] had a CC50 at 24 h of 22.4 µM.

In turn, `O=[N+]([O-])c1cc(Cl)c(Cl)c(Cl)c1Cl` [2,3,4,5-Tetrachloronitrobenzene] had a CC50 at 24 h of 89.5 µM.

In turn, `O=C(c1ccccc1)c1ccc(O)c(O)c1O` [2,3,4-Trihydroxbenzophenone] yielded a CC50 at 24 h of 75 µM.

Take `O=C(Cl)c1c(Cl)c(Cl)c(C(=O)Cl)c(Cl)c1Cl` [2,3,5,6-Tetrachlorobenzene-1,4-dicarbonyl dichloride]: the half-maximal cytotoxic concentration (CC50) at 24 h was > 90 µM.

As for `Clc1cc(Cl)c(Cl)nc1Cl` [2,3,5,6-Tetrachloropyridine], the half-maximal cytotoxic concentration (CC50) at 24 h is > 90 µM.

As to `Oc1cc(Cl)cc(Cl)c1Cl` [2,3,5-Trichlorophenol], the CC50 at 24 h is > 90 µM.

For `O=C(O)c1cc(I)cc(I)c1I` [2,3,5-Triiodobenzoic acid], the CC50 at 24 h was > 100 µM.

Take `Cc1cc(C)c(C)c(O)c1` [2,3,5-Trimethylphenol]: the half-maximal cytotoxic concentration (CC50) at 24 h is > 90 µM.

For the compound `Cc1cnc(C)c(C)n1` [2,3,5-Trimethylpyrazine], the CC50 at 24 h was > 100 µM.

Regarding `O=C(O)c1c(Cl)ccc(Cl)c1Cl` [2,3,6-Trichlorobenzoic acid], the CC50 at 24 h was > 90 µM.

For `Oc1c(Cl)ccc(Cl)c1Cl` [2,3,6-Trichlorophenol], the cytotoxic concentration (CC50) at 24 h was > 90 µM.

`Cc1ccc(C)c(O)c1C` [2,3,6-Trimethylphenol]: the CC50 at 24 h is > 90 µM.

As for `c1ccc2occc2c1` [2,3-Benzofuran], the CC50 at 24 h was > 90 µM.

For the compound `C[C@@H](O)[C@@H](C)O` [2,3-Butanediol], the CC50 at 24 h was > 100 µM.

For the compound `CC(=O)C(C)=O` [2,3-Butanedione], the CC50 at 24 h is > 90 µM.

In the case of `CC(S)C(C)S` (stereo not drawn) [2,3-Butanedithiol], the CC50 at 24 h was > 100 µM.

In the case of `Cc1cccc(N)c1N` [2,3-Diaminotoluene], the CC50 at 24 h was > 90 µM.

With `Clc1cc(C(Cl)(Cl)Cl)cnc1Cl` [2,3-Dichloro-5-(trichloromethyl)pyridine], the CC50 at 24 h is > 90 µM.

As to `Cl[C@@H]1OCCO[C@H]1Cl` [2,3-Dichloro-p-dioxane], the CC50 at 24 h was > 90 µM.

In the case of `O=C(O)c1cccc(Cl)c1Cl` [2,3-Dichlorobenzoic acid], the CC50 at 24 h is > 90 µM.

In the case of `O=[N+]([O-])c1cccc(Cl)c1Cl` [2,3-Dichloronitrobenzene], the CC50 at 24 h is > 90 µM.

In the case of `CCc1nccnc1CC` [2,3-Diethylpyrazine], the CC50 at 24 h is > 30 µM.

Consider `CC1(C)Cc2cccc(O)c2O1` [2,3-Dihydro-2,2-dimethyl-7-benzofuranol], for which the half-maximal cytotoxic concentration (CC50) at 24 h was > 100 µM.

In the case of `Cc1cccc(N)c1C` [2,3-Dimethylaniline], the CC50 at 24 h is > 90 µM.

Regarding `CC(C)C(C)C` [2,3-Dimethylbutane], the CC50 at 24 h was > 90 µM.

For `Cc1cccc(O)c1C` [2,3-Dimethylphenol], the CC50 at 24 h was > 90 µM.

Take `CCCC(=O)C(C)=O` [2,3-Hexanedione]: the CC50 at 24 h is > 90 µM.

With `O=C(O)c1cc2ccccc2nc1C(=O)O` [2,3-Quinolinedicarboxylic acid], the CC50 at 24 h is > 90 µM.

Turning to `O=C(c1ccc(O)cc1)c1ccc(O)cc1O` [2,4,4'-Trihydroxybenzophenone], the CC50 at 24 h is > 90 µM.

As for `C=C(C)CC(C)(C)C` [2,4,4-Trimethyl-1-pentene], the CC50 at 24 h was > 90 µM.

As to `CC(C)(C)CC(C)(C)N` [2,4,4-Trimethyl-2-pentanamine], the CC50 at 24 h is > 90 µM.

In the case of `CC(C)=CC(C)(C)C` [2,4,4-Trimethyl-2-pentene], the cytotoxic concentration (CC50) at 24 h was > 90 µM.

As to `Nc1nc(N)c(N)c(N)n1` [2,4,5,6-Pyrimidinetetramine sulfate (1:1)], the CC50 at 24 h is > 90 µM.

Consider `CCCCC(CC)COC(=O)COc1cc(Cl)c(Cl)cc1Cl` (stereo not drawn) [2,4,5-T 2-Ethylhexyl], for which the CC50 at 24 h is > 90 µM.

Turning to `CCCCOCCOC(=O)COc1cc(Cl)c(Cl)cc1Cl` [2,4,5-T-butotyl], the CC50 at 24 h was > 90 µM.

For `O=S(=O)(O)c1cc(Cl)c(Cl)cc1Cl` [2,4,5-Trichlorobenzenesulfonic acid], the cytotoxic concentration (CC50) at 24 h was > 90 µM.

On to `O=C(O)COc1cc(Cl)c(Cl)cc1Cl` [2,4,5-Trichlorophenoxyacetic acid], for which the CC50 at 24 h was > 90 µM.

The compound `CCOc1cc(OCC)c(C(C)=O)cc1OCC` [2,4,5-Triethoxyacetophenone] displayed a CC50 at 24 h of 35.3 µM.

The data set is the same for the next values; noted with them: rat, gh3-tre-luc cells, AC50 (uM) modified / 1000, Tox21_110001=Tox21_111100; viability, 1 nM T3 present, 24 h.
`Oc1cc(Cl)c(Cl)cc1Cl` [2,4,5-Trichlorophenol]: the CC50 at 24 h is > 50 µM.

The same data set, now with this note: rat, gh3-tre-luc cells, AC50 (uM) modified / 1000, Tox21_110001=Tox21_200050; viability, 1 nM T3 present, 24 h.
Turning to `NC(=O)C(Cl)Cl` [2,2-Dichloroacetamide], the CC50 at 24 h was > 90 µM.

Still in this data set, the particulars now being: rat, gh3-tre-luc cells, AC50 (uM) modified / 1000, Tox21_110001=Tox21_200105; viability, 1 nM T3 present, 24 h.
`Oc1cc(Cl)c(Cl)c(Cl)c1Cl` [2,3,4,5-Tetrachlorophenol]: the midpoint of cytotoxicity, the CC50 at 24 h, lay at 29.2 µM.

Still in this data set, the particulars now being: rat, gh3-tre-luc cells, AC50 (uM) modified / 1000, Tox21_110001=Tox21_200140; viability, 1 nM T3 present, 24 h.
Regarding `O=C(O)C(Br)CBr` (stereo not drawn) [2,3-Dibromopropionic acid], the CC50 at 24 h was > 90 µM.

The data set is the same for the next values; noted with them: rat, gh3-tre-luc cells, AC50 (uM) modified / 1000, Tox21_110001=Tox21_200297; viability, 1 nM T3 present, 24 h.
For the compound `Oc1ccc(Cl)c(Cl)c1Cl` [2,3,4-Trichlorophenol], the CC50 at 24 h was > 100 µM.

The same data set, now with this note: rat, gh3-tre-luc cells, AC50 (uM) modified / 1000, Tox21_110001=Tox21_200342; viability, 1 nM T3 present, 24 h.
As for `OCC(Cl)CCl` (stereo not drawn) [2,3-Dichloro-1-propanol], the CC50 at 24 h is > 90 µM.

The same data set, now with this note: rat, gh3-tre-luc cells, AC50 (uM) modified / 1000, Tox21_110001=Tox21_200640; viability, 1 nM T3 present, 24 h.
As to `C=C(Cl)CCl` [2,3-Dichloro-1-propene], the CC50 at 24 h was > 90 µM.

The same data set, now with this note: rat, gh3-tre-luc cells, AC50 (uM) modified / 1000, Tox21_110001=Tox21_200667; viability, 1 nM T3 present, 24 h.
Turning to `CC(Cl)C(C)Cl` (stereo not drawn) [2,3-Dichlorobutane], the 50% cytotoxic concentration (CC50) at 24 h is > 90 µM.

Still in this data set, the particulars now being: rat, gh3-tre-luc cells, AC50 (uM) modified / 1000, Tox21_110001=Tox21_200670; viability, 1 nM T3 present, 24 h.
In the case of `O=[N+]([O-])c1ccc(Cl)c(Cl)c1Cl` [2,3,4-Trichloronitrobenzene], the CC50 at 24 h is > 90 µM.

The same data set, now with this note: rat, gh3-tre-luc cells, AC50 (uM) modified / 1000, Tox21_110001=Tox21_200709; viability, 1 nM T3 present, 24 h.
Regarding `OCC(Br)CBr` (stereo not drawn) [2,3-Dibromopropanol], the CC50 at 24 h is > 90 µM.

The same data set, now with this note: rat, gh3-tre-luc cells, AC50 (uM) modified / 1000, Tox21_110001=Tox21_200909; viability, 1 nM T3 present, 24 h.
For `Oc1cccc(Cl)c1Cl` [2,3-Dichlorophenol], the CC50 at 24 h is > 90 µM.

The data set is the same for the next values; noted with them: rat, gh3-tre-luc cells, AC50 (uM) modified / 1000, Tox21_110001=Tox21_200910; viability, 1 nM T3 present, 24 h.
Compound `Oc1c(Cl)c(Cl)cc(Cl)c1Cl` [2,3,5,6-Tetrachlorophenol] registered a CC50 at 24 h of 65.8 µM.

The data set is the same for the next values; noted with them: rat, gh3-tre-luc cells, AC50 (uM) modified / 1000, Tox21_110001=Tox21_200937; viability, 1 nM T3 present, 24 h.
As for `O=[N+]([O-])c1cc(Cl)c(Cl)cc1Cl` [2,4,5-Trichloronitrobenzene], the CC50 at 24 h was > 90 µM.

The data set is the same for the next values; noted with them: rat, gh3-tre-luc cells, AC50 (uM) modified / 1000, Tox21_110001=Tox21_201545; viability, 1 nM T3 present, 24 h.
As for `Oc1cc(Cl)c(Cl)cc1Cl` [2,4,5-Trichlorophenol], the CC50 at 24 h is > 90 µM.

Still in this data set, the particulars now being: rat, gh3-tre-luc cells, AC50 (uM) modified / 1000, Tox21_110001=Tox21_202792; viability, 1 nM T3 present, 24 h.
Regarding `Clc1cc2c(cc1Cl)Oc1cc(Cl)c(Cl)cc1O2` [2,3,7,8-Tetrachlorodibenzo-p-dioxin], the CC50 at 24 h was > 0.3 µM.

Staying with this data set, now noted: rat, gh3-tre-luc cells, AC50 (uM) modified / 1000, Tox21_110001=Tox21_400013; viability, 1 nM T3 present, 24 h.
Turning to `O=[N+]([O-])c1c(Cl)c(Cl)cc(Cl)c1Cl` [2,3,5,6-Tetrachloronitrobenzene], the CC50 at 24 h was > 90 µM.

Usually CC50 stands for the concentration at which the toxic effect on the cells reaches its halfway point. A high value points to lower toxicity to the cells.
